In general, IC50 refers to the midpoint of a concentration-inhibition curve. In general, Ki refers to a measure of affinity in units of concentration, obtained from inhibition or displacement.

Our source for the IC50 and Ki values is patent US7998965B2, “Glutamate aggrecanase inhibitors” (Wyeth LLC, priority 2005, dated 2011).

Like-named read-outs stand apart in the source and are kept apart here.

For assay [1], the target named is T1, purified recombinant human Aggrecanase-1 (rAgg1) (Homo sapiens, UniProt O75173).
T1 sequence (O75173 213-837): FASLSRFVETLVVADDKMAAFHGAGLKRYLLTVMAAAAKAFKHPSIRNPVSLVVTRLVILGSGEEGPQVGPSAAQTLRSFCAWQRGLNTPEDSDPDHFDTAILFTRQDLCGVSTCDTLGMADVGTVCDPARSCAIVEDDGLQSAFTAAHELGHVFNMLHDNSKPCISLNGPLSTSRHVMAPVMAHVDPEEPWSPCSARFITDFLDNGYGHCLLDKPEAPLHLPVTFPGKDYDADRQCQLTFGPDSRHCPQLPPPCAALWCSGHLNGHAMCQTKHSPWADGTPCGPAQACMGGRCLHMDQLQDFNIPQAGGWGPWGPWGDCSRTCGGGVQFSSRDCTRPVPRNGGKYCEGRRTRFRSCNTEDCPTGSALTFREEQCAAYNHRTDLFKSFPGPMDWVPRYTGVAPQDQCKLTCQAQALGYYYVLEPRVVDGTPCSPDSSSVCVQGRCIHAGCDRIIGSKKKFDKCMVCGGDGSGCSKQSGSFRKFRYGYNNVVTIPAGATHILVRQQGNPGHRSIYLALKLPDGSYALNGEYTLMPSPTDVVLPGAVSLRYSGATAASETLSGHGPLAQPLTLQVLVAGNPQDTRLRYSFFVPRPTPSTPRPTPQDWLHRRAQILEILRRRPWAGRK
Kind of assay: In vitro fluorescence screen for Aggrecanase-1 inhibitors. The settings on record: for IC50: read-out: Agg1 IC50; for Ki: read-out: Ki Agg1. It counts as biochemical.

For assay [2], the target named is T2, purified recombinant human Aggrecanase-2 (Ag2t-Phe628-Strep) (Homo sapiens, UniProt Q9UNA0).
T2 construct: the form used is denoted as Ag2t-Phe628-Strep (MW=41,737)
T2 sequence (Q9UNA0 262-628): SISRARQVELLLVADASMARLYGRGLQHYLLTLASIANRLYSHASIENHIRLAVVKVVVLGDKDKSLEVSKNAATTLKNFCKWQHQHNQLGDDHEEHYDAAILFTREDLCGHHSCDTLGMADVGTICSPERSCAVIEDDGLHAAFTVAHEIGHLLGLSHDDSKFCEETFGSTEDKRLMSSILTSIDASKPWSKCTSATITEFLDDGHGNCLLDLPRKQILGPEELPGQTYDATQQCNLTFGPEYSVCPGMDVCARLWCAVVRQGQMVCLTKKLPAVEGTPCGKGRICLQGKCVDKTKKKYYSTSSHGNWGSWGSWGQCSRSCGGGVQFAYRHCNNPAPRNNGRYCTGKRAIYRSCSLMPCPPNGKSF
The experiment in a line: In vitro fluorescence screen for Aggrecanase-2 inhibitors. It counts as biochemical. The following applies: for IC50: read-out: Agg 2 IC50; for Ki: read-out: Ki Agg2.

As for `CC(C)(Cc1ccc(F)cc1)NC(=O)[C@H](CCC(=O)O)NC(=O)c1ccc(Br)cc1` [N^2-(4-bromobenzoyl)-N-[2-(4-fluorophenyl)-1,1-dimethylethyl]-L-α-glutamine], the IC50 came out at 1040 nM in assay [1] (Table 3) and 7400 nM in assay [2] (Table 3).

In the case of `CC(C)(Cc1ccc(Cl)cc1)NC(=O)[C@H](CCC(=O)O)NC(=O)c1ccc(-c2ccccc2)nc1` [Example 8XXXXXXXX, N-[2-(4-chlorophenyl)-1,1-dimethylethyl]-N^2-[(6-phenylpyridin-3-yl)carbonyl]-L-α-glutamine], the IC50 came out at 100 nM in assay [1] (Table 3) and 1700 nM in assay [2] (Table 3).

For the compound `CC(C)(Cc1ccc(Cl)cc1)NC(=O)[C@H](CCC(=O)O)NC(=O)c1ccc(-c2c(F)cccc2F)cc1` [Example 8CCCCCCC, N-[2-(4-chlorophenyl)-1,1-dimethylethyl]-N^2-[(2′,6′-difluorobiphenyl-4-yl)carbonyl]-L-α-glutamine], the IC50 came to 50 nM in assay [1] (Table 3) and 680 nM in assay [2] (Table 3).

Take `CC(C)Cc1ccc(-c2ccc(C(=O)N[C@@H](CCC(=O)O)C(=O)NC(C)(C)Cc3ccc(F)cc3)cc2)cc1` [Example 17HH, N-[2-(4-fluorophenyl)-1,1-dimethylethyl]-N^2-[(4′-isobutylbiphenyl-4-yl)carbonyl]-L-α-glutamine]: the figures for the IC50 in assay [1] (Table 2) and in assay [2] (Table 2) were 2200 nM and 6320 nM, respectively.

As to `Cc1ccc(-c2ccc(C(=O)N[C@@H](CCC(=O)O)C(=O)NC(C)(C)Cc3ccc(F)cc3)cc2)cc1F` [Example 17GG, N^2-[(3′-fluoro-4′-methylbiphenyl-4-yl)carbonyl]-N-[2-(4-fluorophenyl)-1,1-dimethylethyl]-L-α-glutamine], the IC50 in assay [1] (Table 2) was 34 nM; in assay [2] (Table 2), 113 nM.

Regarding `COc1ccc(-c2ccc(C(=O)N[C@@H](CCC(=O)O)C(=O)NCc3cc(OC)c(OC)c(OC)c3)cc2)c(OC)c1` [Example 17G, N^2-[(2′,4′-dimethoxybiphenyl-4-yl)carbonyl]-N-(3,4,5-trimethoxybenzyl)-L-α-glutamine], the results for the 50% inhibitory concentration (IC50) in assay [1] (Table 2) and in assay [2] (Table 2) were 1600 nM and 3000 to 8000 nM, respectively.

As to `CC(C)(Cc1ccccc1)NC(=O)[C@H](CCC(=O)O)NC(=O)c1ccc(-c2ccc(-c3ccccc3)cc2)cc1` [Example 17U, N-(1,1-dimethyl-2-phenylethyl)-N^2-(1,1′:4′,1″-terphenyl-4-ylcarbonyl)-L-α-glutamine], the 50% inhibitory concentration (IC50) was 1800 nM in assay [1] (Table 2) and approximately 6700 nM in assay [2] (Table 2).

On to `COc1cc(COc2ccc(-c3ccc(C(=O)N[C@@H](CCC(=O)O)C(=O)NC(C)(C)Cc4ccc(F)cc4)cc3)cc2)cc(OC)c1` [Example 15N, N^2-({4′-[(3,5-dimethoxybenzyl)oxy]biphenyl-4-yl}carbonyl)-N-[2-(4-fluorophenyl)-1,1-dimethylethyl]-L-α-glutamine], for which the IC50 in assay [1] (Table 3) stood at 91 nM; in assay [2] (Table 3) it was 103 nM.

For the compound `CC(C)(Cc1ccccc1)NC(=O)[C@H](CCC(=O)O)NC(=O)c1ccc(-c2ccc(COc3cccc(C(C)(C)C)c3)cc2)cc1` [Example 15Y, N^2-({4′-[(3-tert-butylphenoxy)methyl]biphenyl-4-yl}carbonyl)-N-(1,1-dimethyl-2-phenylethyl)-L-α-glutamine], the IC50 stood at 220 nM in assay [1] (Table 2) and 841 nM in assay [2] (Table 2).

Turning to `O=C(O)CC[C@H](NC(=O)c1ccc(C#CC(O)(c2ccccc2)c2ccccc2)cc1)C(=O)NCc1ccccc1` [Example 12K, N-benzyl-N^2-[4-(3-hydroxy-3,3-diphenylprop-1-yn-1-yl)benzoyl]-L-α-glutamine], the results for the IC50 in assay [1] (Table 2) and in assay [2] (Table 2) were approximately 25000 nM and more than 22000 nM, respectively.

In the case of `CC(C)(Cc1ccc(F)cc1)NC(=O)[C@H](CCC(=O)O)NC(=O)c1ccc(-c2cccc(O)c2)cc1` [Example 17UU, N-[2-(4-fluorophenyl)-1,1-dimethylethyl]-N^2-[(3′-hydroxybiphenyl-4-yl)carbonyl]-L-α-glutamine], the IC50 in assay [1] (Table 2) was less than 30 nM; in assay [2] (Table 2), 39 nM.

With `Cc1cccc(CNC(=O)[C@H](CCC(=O)O)NC(=O)c2ccc(-c3ccc4c(c3)OCO4)cc2)c1` [Example 17NN, N^2-[4-(1,3-benzodioxol-5-yl)benzoyl]-N-(3-methylbenzyl)-L-α-glutamine], the half-maximal inhibitory concentration (IC50) worked out at 200 nM in assay [1] (Table 2) and 729 nM in assay [2] (Table 2).

In the case of `COc1cc(CNC(=O)[C@H](CCC(=O)O)NC(=O)c2ccc(-c3ccc(OCc4cc(C(F)(F)F)cc(C(F)(F)F)c4)cc3)cc2)cc(OC)c1OC` [Example 19E, N^2-[(4′-{[3,5-bis(trifluoromethyl)benzyl]oxy}biphenyl-4-yl)carbonyl]-N-(3,4,5-trimethoxybenzyl)-L-α-glutamine], the half-maximal inhibitory concentration (IC50) in assay [1] (Table 2) worked out at 49 nM; in assay [2] (Table 2), 1120 nM.

For the compound `CC(C)(Cc1ccccc1)NC(=O)[C@H](CCC(=O)O)NC(=O)c1cccc(-c2ccc(Cl)s2)c1` [N^2-[3-(5-chloro-2-thienyl)benzoyl]-N-(1,1-dimethyl-2-phenylethyl)-L-α-glutamine], the IC50 is more than 900 nM in assay [1] (Table 3) and more than 8300 nM in assay [2] (Table 3).

For `COc1cc(CNC(=O)[C@H](CCC(=O)O)NC(=O)c2ccc(-c3ccc(OCc4cc(C)cc(C)c4)cc3)cc2)cc(OC)c1OC` [Example 19D, N^2-({4′-[(3,5-dimethylbenzyl)oxy]biphenyl-4-yl}carbonyl)-N-(3,4,5-trimethoxybenzyl)-L-α-glutamine], the IC50 in assay [1] (Table 2) is 210 nM; in assay [2] (Table 2), 223 nM.

Regarding `CCc1cccc(OCc2ccc(-c3ccc(C(=O)N[C@@H](CCC(=O)O)C(=O)NC(C)(C)Cc4ccccc4)cc3)cc2)c1` [Example 15AA, N-(1,1-dimethyl-2-phenylethyl)-N^2-({4′-[(3-ethylphenoxy)methyl]biphenyl-4-yl}carbonyl)-L-α-glutamine], the IC50 in assay [1] (Table 2) was determined as 44 nM; in assay [2] (Table 2), 327 nM.

Regarding `CC(C)(Cc1ccc(F)cc1)NC(=O)[C@H](CCC(=O)O)NC(=O)c1ccc(-c2ccc(F)c(Cl)c2)s1` [N^2-{[5-(3-chloro-4-fluorophenyl)-2-thienyl]carbonyl}-N-[2-(4-fluorophenyl)-1,1-dimethylethyl]-L-α-glutamine], in assay [1] (Table 3), the IC50 is less than 30 nM and the Ki was 6.7 nM. In assay [2] (Table 3), the IC50 was 98 nM and the Ki stood at 45 nM.

As to `Cc1cccc(-c2ccc(C(=O)N[C@@H](CCC(=O)O)C(=O)NC(C)(C)Cc3ccc(F)cc3)cc2)c1` [Example 17Y, N-[2-(4-fluorophenyl)-1,1-dimethylethyl]-N^2-[(3′-methylbiphenyl-4-yl)carbonyl]-L-α-glutamine], the IC50 in assay [1] (Table 2) was less than 30 nM; in assay [2] (Table 2), 156 nM.

For the compound `CCOc1ccccc1-c1ccc(C(=O)N[C@@H](CCC(=O)O)C(=O)NC(C)(C)Cc2ccccc2)cc1` [Example 17K, N-(1,1-dimethyl-2-phenylethyl)-N^2-[(2′-ethoxybiphenyl-4-yl)carbonyl]-L-α-glutamine], the IC50 is 1200 nM in assay [1] (Table 2) and approximately 3700 nM in assay [2] (Table 2).

On to `CC(C)(Cc1ccc(F)cc1)NC(=O)[C@H](CCC(=O)O)NC(=O)c1ccc(-c2cccs2)s1` [Example 8BBBBBBBBB, N^2-(2,2′-bithien-5-ylcarbonyl)-N-[2-(4-fluorophenyl)-1,1-dimethylethyl]-L-α-glutamine], for which the IC50 in assay [1] (Table 3) is less than 30 nM; in assay [2] (Table 3) it was 100 to 300 nM. Moreover, the Ki in assay [1] (Table 3) was found to be 11.5 nM; in assay [2] (Table 3) it was 681 nM.

For `CC(C)(Cc1ccccc1)NC(=O)[C@H](CCC(=O)O)NC(=O)c1ccc(-c2ccc3c(c2)OCC3)cc1` [N^2-[4-(2,3-dihydro-1-benzofuran-6-yl)benzoyl]-N-(1,1-dimethyl-2-phenylethyl)-L-α-glutamine], the IC50 in assay [1] (Table 3) is 70 nM; in assay [2] (Table 3), 270 to 800 nM.

In the case of `CCOc1cccc(-c2ccc(C(=O)N[C@@H](CCC(=O)O)C(=O)NC(C)(C)Cc3ccc(F)cc3)cc2)c1` [Example 17DD, N^2-[(3′-ethoxybiphenyl-4-yl)carbonyl]-N-[2-(4-fluorophenyl)-1,1-dimethylethyl]-L-α-glutamine], the IC50 in assay [1] (Table 2) was less than 30 nM; in assay [2] (Table 2), 1190 nM.

Consider `O=C(O)CC[C@H](NC(=O)c1ccc(-c2ccc3occc3c2)cc1)C(=O)NCC12CC3CC(CC(C3)C1)C2` [Example 17BB, N-(1-adamantylmethyl)-N^2-[4-(1-benzofuran-5-yl)benzoyl]-L-α-glutamine], for which the figures for the IC50 in assay [1] (Table 2) and in assay [2] (Table 2) were 3600 nM and 2900 nM, respectively.

Turning to `C[C@H](NC(=O)[C@H](CCC(=O)O)NC(=O)c1ccc(-c2ccccc2)cc1)c1ccccc1` [Example 8PPPPP, N^2-(biphenyl-4-ylcarbonyl)-N^1-[(1S)-1-phenylethyl]-L-α-glutamine], the IC50 in assay [1] (Table 2) turned out to be 157 nM; in assay [2] (Table 2), 2970 nM.
